Experimental data: ChEMBL document CHEMBL1133831 (Bioorg Med Chem Lett, 2001)

Experiments:
[1] = biological target: T1, Muscarinic acetylcholine receptor M1 (Homo sapiens, UniProt P11229); experiment: Ability to displace [3H]N-methylscopolamine from Muscarinic acetylcholine receptor M1 expressed in CHO cells.; type: cell-based
T1 sequence (P11229 whole entry): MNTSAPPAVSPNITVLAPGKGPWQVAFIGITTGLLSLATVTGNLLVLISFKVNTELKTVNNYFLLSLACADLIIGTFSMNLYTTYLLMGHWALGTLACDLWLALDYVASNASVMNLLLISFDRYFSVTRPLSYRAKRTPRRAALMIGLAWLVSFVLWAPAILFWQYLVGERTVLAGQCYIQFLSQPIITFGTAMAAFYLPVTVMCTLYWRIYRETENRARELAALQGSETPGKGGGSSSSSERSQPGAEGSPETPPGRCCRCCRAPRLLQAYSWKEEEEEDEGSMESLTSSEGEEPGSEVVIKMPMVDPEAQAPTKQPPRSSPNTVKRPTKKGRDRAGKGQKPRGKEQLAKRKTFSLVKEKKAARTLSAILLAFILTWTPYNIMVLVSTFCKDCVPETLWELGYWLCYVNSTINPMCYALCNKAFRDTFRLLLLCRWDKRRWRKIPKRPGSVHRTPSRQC

[2] = biological target: T1, Muscarinic acetylcholine receptor M1; experiment: Ability to displace [3H]oxotremorine from Muscarinic acetylcholine receptor M1 expressed in CHO cells.; type: cell-based

| SMILES | IC50 [1] [µM] | IC50 [2] [µM] |
| --- | --- | --- |
| Clc1cc(CO/N=C/C2CN3CCC2C3)on1 (centres undefined) | 14.9 | 0.044 |
| COc1cc(CO/N=C2\CN3CCC2C3)on1 (centres undefined) | 40.5 | 0.131 |
| Clc1cc(CO/N=C/C2CN3CCC2CC3)on1 (centres undefined) | 23.5 | 0.795 |
| Brc1cc(CO/N=C/C2CN3CCC2C3)on1 (centres undefined) | 17.7 | 0.385 |
| N#Cc1cc(CO/N=C2\CN3CCC2CC3)on1 | 8.7 | 0.081 |
| Clc1cc(CO/N=C2\CN3CCC2C3)on1 (centres undefined) | 36.3 | 0.023 |
| Brc1cc(CO/N=C2\CN3CCC2C3)on1 (centres undefined) | 48.8 | 0.079 |
| COc1cc(CO/N=C2\CN3CCC2CC3)on1 | 35.6 | 0.362 |
| Brc1cc(CO/N=C/C2CN3CCC2CC3)on1 (centres undefined) | 8.4 | 1.22 |
| Brc1cc(CO/N=C2\CN3CCC2CC3)on1 | 11.5 | 0.072 |
| COc1cc(CO/N=C/C2CN3CCC2C3)on1 (centres undefined) | 16.7 | 0.287 |
| COc1cc(CO/N=C/C2CN3CCC2CC3)on1 (centres undefined) | 29.5 | 1.64 |
| N#Cc1cc(CO/N=C2\CN3CCC2C3)on1 (centres undefined) | 32.5 | 0.082 |
| N#Cc1cc(CO/N=C/C2CN3CCC2C3)on1 (centres undefined) | 189 | 1.86 |
| N#Cc1cc(CO/N=C/C2CN3CCC2CC3)on1 (centres undefined) | 133 | 0.341 |
| Clc1cc(CO/N=C2\CN3CCC2CC3)on1 | 13.8 | 0.057 |
| O=C1CCCN1CC#CCN1CCCC1 [OXOTREMORINE] | 27.1 | 0.0023 |
